Earlier results in patent US7208484B2, “Method of synthesizing 1alpha-hydroxy-2-methylene-19-nor-homopregnacalciferol” (Wisconsin Alumni Research Foundation, priority 2002, dated 2007).

How the values were obtained:
vitamin D receptors = molecular target: T1, vitamin D receptors (Homo sapiens, UniProt P11473); details: compared with 1α,25-dihydroxyvitamin D3
T1 sequence (P11473 1-427): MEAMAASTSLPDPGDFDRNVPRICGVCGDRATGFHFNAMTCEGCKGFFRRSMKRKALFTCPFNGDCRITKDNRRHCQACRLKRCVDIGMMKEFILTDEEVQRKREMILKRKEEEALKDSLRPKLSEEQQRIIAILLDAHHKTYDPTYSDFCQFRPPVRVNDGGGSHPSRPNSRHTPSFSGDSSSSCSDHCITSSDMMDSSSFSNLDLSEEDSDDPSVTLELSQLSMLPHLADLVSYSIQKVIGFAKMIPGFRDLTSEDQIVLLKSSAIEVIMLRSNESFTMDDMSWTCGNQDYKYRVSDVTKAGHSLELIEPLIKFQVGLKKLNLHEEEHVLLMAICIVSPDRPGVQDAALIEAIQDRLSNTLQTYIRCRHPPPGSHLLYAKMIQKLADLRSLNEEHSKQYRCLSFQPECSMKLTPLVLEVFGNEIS

[1] = in vivo

In the case of `C=C1C(=CC=C2CCCC3(C)C2CCC3C(C)C)CC(O)CC1O` (stereo not drawn) [1α-hydroxy-20-methyl-pregnacalciferol], the “HL-60 cell differentiation ability” value (HL-60 cell) is listed as “some HL-60 cell differentiation ability”, the “binding to the receptor” value (vitamin D receptors) is listed as “comparable binding to the receptor as 1α,25-dihydroxyvitamin D3” and the calcemic activity [1] is listed as “essentially devoid of calcemic activity”.
